≈ marks a conversion by molar mass, not a printed value. Calls of active or inactive are those of the source. No cut-off for these calls is given here.
Tests used:
[1] = system: Pseudomonas aeruginosa; assay: Bactericidal activity against Pseudomonas aeruginosa ATCC 15442 assessed as reduction in bacterial cell growth incubated for 18 to 20 hrs followed by re-plating on tryptic soy agar plates at 37 degC for 18 hrs by broth microdilution assay; format: functional
[2] = system: Streptococcus pneumoniae; assay: Antibacterial activity against Cephalosporin resistant Streptococcus pneumoniae ATCC 51916 assessed as reduction in bacterial cell growth incubated for 18 to 20 hrs by broth microdilution method; format: functional
[3] = system: Acinetobacter baumannii; assay: Antibacterial activity against Acinetobacter baumannii ATCC 19606 assessed as reduction in bacterial cell growth incubated for 18 to 20 hrs by broth microdilution method; format: functional
[4] = system: Acinetobacter baumannii; assay: Bactericidal activity against Acinetobacter baumannii ATCC 19606 assessed as reduction in bacterial cell growth incubated for 18 to 20 hrs followed by re-plating on tryptic soy agar plates at 37 degC for 18 hrs by broth microdilution assay; format: functional
[5] = system: Escherichia coli; assay: Antibacterial activity against Escherichia coli BW25113 assessed as reduction in bacterial cell growth incubated for 18 to 20 hrs by broth microdilution method; format: functional
[6] = system: Enterococcus faecium; assay: Bactericidal activity against vancomycin resistant Enterococcus faecium ATCC 700221 assessed as reduction in bacterial cell growth incubated for 18 to 20 hrs followed by re-plating on tryptic soy agar plates at 37 degC for 18 hrs by broth microdilution assay; format: functional
[7] = system: Escherichia coli; assay: BActericidal activity against Escherichia coli BW25113 assessed as reduction in bacterial cell growth incubated for 18 to 20 hrs followed by re-plating on tryptic soy agar plates at 37 degC for 18 hrs by broth microdilution assay; format: functional
[8] = system: Pseudomonas aeruginosa; assay: Antibacterial activity against Pseudomonas aeruginosa ATCC 15442 assessed as reduction in bacterial cell growth incubated for 18 to 20 hrs by broth microdilution method; format: functional
[9] = system: Listeria monocytogenes; assay: Bactericidal activity against Listeria monocytogenes ATCC 19111 assessed as reduction in bacterial cell growth incubated for 18 to 20 hrs followed by re-plating on tryptic soy agar plates at 37 degC for 18 hrs by broth microdilution assay; format: functional
[10] = system: Streptococcus pneumoniae; assay: Bactericidal activity against Cephalosporin resistant Streptococcus pneumoniae ATCC 51916 assessed as reduction in bacterial cell growth incubated for 18 to 20 hrs followed by re-plating on tryptic soy agar plates at 37 degC for 18 hrs by broth microdilution assay; format: functional
[11] = system: Staphylococcus epidermidis; assay: Bactericidal activity against methicillin resistant Staphylococcus epidermidis NRS101 assessed as reduction in bacterial cell growth incubated for 18 to 20 hrs followed by re-plating on tryptic soy agar plates at 37 degC for 18 hrs by broth microdilution assay; format: functional
[12] = system: Staphylococcus aureus; assay: Antibacterial activity against vancomycin resistant Staphylococcus aureus VRS11a assessed as reduction in bacterial cell growth incubated for 18 to 20 hrs by broth microdilution method; format: functional
[13] = system: Enterococcus faecalis; assay: Bactericidal activity against vancomycin resistant Enterococcus faecalis ATCC 51299 assessed as reduction in bacterial cell growth incubated for 18 to 20 hrs followed by re-plating on tryptic soy agar plates at 37 degC for 18 hrs by broth microdilution assay; format: functional
[14] = system: Staphylococcus aureus; assay: Bactericidal activity against Staphylococcus aureus NRS107 assessed as reduction in bacterial cell growth incubated for 18 to 20 hrs followed by re-plating on tryptic soy agar plates at 37 degC for 18 hrs by broth microdilution assay; format: functional
[15] = system: Enterococcus faecium; assay: Antibacterial activity against vancomycin resistant Enterococcus faecium ATCC 700221 assessed as reduction in bacterial cell growth incubated for 18 to 20 hrs by broth microdilution method; format: functional
[16] = system: Staphylococcus aureus; assay: Antibacterial activity against Staphylococcus aureus ATCC 6538 assessed as reduction in bacterial cell growth incubated for 18 to 20 hrs by broth microdilution method; format: functional
[17] = system: Staphylococcus aureus; assay: Bactericidal activity against Staphylococcus aureus ATCC 6538 assessed as reduction in bacterial cell growth incubated for 18 to 20 hrs followed by re-plating on tryptic soy agar plates at 37 degC for 18 hrs by broth microdilution assay; format: functional
[18] = system: Staphylococcus aureus; assay: Bactericidal activity against vancomycin resistant Staphylococcus aureus VRS11a assessed as reduction in bacterial cell growth incubated for 18 to 20 hrs followed by re-plating on tryptic soy agar plates at 37 degC for 18 hrs by broth microdilution assay; format: functional
[19] = system: Streptococcus pneumoniae; assay: Bactericidal activity against Methicillin resistant Streptococcus pneumoniae ATCC 700677 assessed as reduction in bacterial cell growth incubated for 18 to 20 hrs followed by re-plating on tryptic soy agar plates at 37 degC for 18 hrs by broth microdilution assay; format: functional
[20] = system: Staphylococcus aureus; assay: Antibacterial activity against vancomycin resistant Staphylococcus aureus VRS12 assessed as reduction in bacterial cell growth incubated for 18 to 20 hrs by broth microdilution method; format: functional
[21] = system: Staphylococcus aureus; assay: Antibacterial activity against methicillin resistant Staphylococcus aureus USA400 assessed as reduction in bacterial cell growth incubated for 18 to 20 hrs by broth microdilution method; format: functional
[22] = system: Staphylococcus aureus; assay: Bactericidal activity against methicillin resistant Staphylococcus aureus NRS119 assessed as reduction in bacterial cell growth incubated for 18 to 20 hrs followed by re-plating on tryptic soy agar plates at 37 degC for 18 hrs by broth microdilution assay; format: functional
[23] = system: Klebsiella pneumoniae; assay: Bactericidal activity against Klebsiella pneumoniae BAA-1706 assessed as reduction in bacterial cell growth incubated for 18 to 20 hrs followed by re-plating on tryptic soy agar plates at 37 degC for 18 hrs by broth microdilution assay; format: functional
[24] = system: Escherichia coli; assay: Bactericidal activity against Escherichia coli JW55031 harboring deltatolC mutant assessed as reduction in bacterial cell growth incubated for 18 to 20 hrs followed by re-plating on tryptic soy agar plates at 37 degC for 18 hrs by broth microdilution assay; format: functional
[25] = system: Staphylococcus aureus; assay: Bactericidal activity against methicillin-resistant Staphylococcus aureus USA300 assessed as reduction in bacterial cell growth incubated for 18 to 20 hrs followed by re-plating on tryptic soy agar plates at 37 degC for 18 hrs by broth microdilution assay; format: functional
[26] = system: Listeria monocytogenes; assay: Antibacterial activity against Listeria monocytogenes ATCC 19111 assessed as reduction in bacterial cell growth incubated for 18 to 20 hrs by broth microdilution method; format: functional
[27] = system: Staphylococcus aureus; assay: Antibacterial activity against intracellular methicillin resistant Staphylococcus aureus USA400 infected in mouse J774 cells assessed as log10 reduction of viable bacterial cells incubated for 24 hrs followed by re-plating on tryptic soy agar plates at 37 degC for 18 to 22 hrs by broth microdilution assay; format: functional
[28] = system: Staphylococcus aureus; assay: Antibacterial activity against Staphylococcus aureus NRS107 assessed as reduction in bacterial cell growth incubated for 18 to 20 hrs by broth microdilution method; format: functional
[29] = system: Staphylococcus epidermidis; assay: Antibacterial activity against methicillin resistant Staphylococcus epidermidis NRS101 assessed as reduction in bacterial cell growth incubated for 18 to 20 hrs by broth microdilution method; format: functional
[30] = Solubility of compound in PBS after 2 hrs by turbidity based absorbance analysis; format: physicochemical
[31] = system: Staphylococcus aureus; assay: Antibacterial activity against methicillin-resistant Staphylococcus aureus USA300 assessed as reduction in bacterial cell growth incubated for 18 to 20 hrs by broth microdilution method; format: functional
[32] = system: Escherichia coli; assay: Antibacterial activity against Escherichia coli JW55031 harboring deltatolC mutant assessed as reduction in bacterial cell growth incubated for 18 to 20 hrs by broth microdilution method; format: functional
[33] = system: Staphylococcus aureus; assay: Antibacterial activity against methicillin resistant Staphylococcus aureus NRS119 assessed as reduction in bacterial cell growth incubated for 18 to 20 hrs by broth microdilution method; format: functional

SMILES | MBC [1] | MIC [2] | MIC [3] | MBC [4] | MIC [5] | MBC [6] | MBC [7] | MIC [8] | MBC [9] | MBC [10] | MBC [11] | MIC [12] | MBC [13] | MBC [14] | MIC [15] | MIC [16] | MBC [17] | MBC [18] | MBC [19] | MIC [20] | further results
C/C(=N\NC(=N)N)c1sc(-c2ccc(C#Cc3ccc(C)s3)cc2)nc1C | > 64 mg/L | 8 mg/L (≈ 20.3 µM) | 32 mg/L (≈ 81.3 µM) | 64 mg/L (≈ 163 µM) | 64 mg/L (≈ 163 µM) | 4 mg/L (≈ 10.2 µM) | > 64 mg/L | > 64 mg/L | 32 mg/L (≈ 81.3 µM) | 16 mg/L (≈ 40.7 µM) | 4 mg/L (≈ 10.2 µM) | 4 mg/L (≈ 10.2 µM) | 64 mg/L (≈ 163 µM) | 4 mg/L (≈ 10.2 µM) | 2 mg/L (≈ 5.08 µM) | 4 mg/L (≈ 10.2 µM) | 4 mg/L (≈ 10.2 µM) | 8 mg/L (≈ 20.3 µM) | 32 mg/L (≈ 81.3 µM) | 8 mg/L (≈ 20.3 µM) | MIC [21]: 2 mg/L (≈ 5.08 µM); MBC [22]: 4 mg/L (≈ 10.2 µM); MBC [23]: 64 mg/L (≈ 163 µM); MBC [24]: 64 mg/L (≈ 163 µM); MBC [25]: 16 mg/L (≈ 40.7 µM); MIC [26]: 8 mg/L (≈ 20.3 µM); Activity [27]: 0.21 log10CFU; MIC [28]: 4 mg/L (≈ 10.2 µM); MIC [29]: 4 mg/L (≈ 10.2 µM); solubility kinetic at 2 h [30]: 12 µM (≈ 4.72 µg/mL); MIC [31]: 8 mg/L (≈ 20.3 µM); MIC [32]: 32 mg/L (≈ 81.3 µM); MIC [33]: 4 mg/L (≈ 10.2 µM)
C/C(=N\NC(=N)N)c1sc(-c2ccc(C#CC(C)(C)O)cc2)nc1C | > 64 mg/L | 4 mg/L (≈ 11.3 µM) | 64 mg/L (≈ 180 µM) | 64 mg/L (≈ 180 µM) | > 64 mg/L | 4 mg/L (≈ 11.3 µM) | > 64 mg/L | > 64 mg/L | 8 mg/L (≈ 22.5 µM) | 8 mg/L (≈ 22.5 µM) | 4 mg/L (≈ 11.3 µM) | 1 mg/L (≈ 2.81 µM) | 8 mg/L (≈ 22.5 µM) | 4 mg/L (≈ 11.3 µM) | 2 mg/L (≈ 5.63 µM) | 2 mg/L (≈ 5.63 µM) | 4 mg/L (≈ 11.3 µM) | 4 mg/L (≈ 11.3 µM) | 8 mg/L (≈ 22.5 µM) | 4 mg/L (≈ 11.3 µM) | MIC [21]: 2 mg/L (≈ 5.63 µM); MBC [22]: 4 mg/L (≈ 11.3 µM); MBC [23]: > 64 mg/L; MBC [24]: 16 mg/L (≈ 45 µM); MBC [25]: 16 mg/L (≈ 45 µM); MIC [26]: 4 mg/L (≈ 11.3 µM); MIC [28]: 4 mg/L (≈ 11.3 µM); MIC [29]: 4 mg/L (≈ 11.3 µM); solubility kinetic at 2 h [30]: 320 µM (≈ 114 µg/mL); MIC [31]: 4 mg/L (≈ 11.3 µM); MIC [32]: 16 mg/L (≈ 45 µM); MIC [33]: 2 mg/L (≈ 5.63 µM)
C/C(=N\NC(=N)N)c1sc(-c2ccc(C#Cc3ccc(N)cc3)cc2)nc1C | > 64 mg/L | 32 mg/L (≈ 82.4 µM) | 64 mg/L (≈ 165 µM) | > 64 mg/L | > 64 mg/L | 16 mg/L (≈ 41.2 µM) | > 64 mg/L | > 64 mg/L | > 64 mg/L | 32 mg/L (≈ 82.4 µM) | 2 mg/L (≈ 5.15 µM) | 16 mg/L (≈ 41.2 µM) | > 64 mg/L | 8 mg/L (≈ 20.6 µM) | 4 mg/L (≈ 10.3 µM) | 2 mg/L (≈ 5.15 µM) | 4 mg/L (≈ 10.3 µM) | 32 mg/L (≈ 82.4 µM) | 32 mg/L (≈ 82.4 µM) | 16 mg/L (≈ 41.2 µM) | MIC [21]: 4 mg/L (≈ 10.3 µM); MBC [22]: 16 mg/L (≈ 41.2 µM); MBC [23]: > 64 mg/L; MBC [24]: 16 mg/L (≈ 41.2 µM); MBC [25]: 16 mg/L (≈ 41.2 µM); MIC [26]: 32 mg/L (≈ 82.4 µM); Activity call [27]: inactive; MIC [28]: 4 mg/L (≈ 10.3 µM); MIC [29]: 2 mg/L (≈ 5.15 µM); solubility kinetic at 2 h [30]: 105 µM (≈ 40.8 µg/mL); MIC [31]: 4 mg/L (≈ 10.3 µM); MIC [32]: 16 mg/L (≈ 41.2 µM); MIC [33]: 8 mg/L (≈ 20.6 µM)
C/C(=N\NC(=N)N)c1sc(-c2ccc(C#CC3(O)CCCCC3)cc2)nc1C | > 64 mg/L | 8 mg/L (≈ 20.2 µM) | 64 mg/L (≈ 162 µM) | 64 mg/L (≈ 162 µM) | > 64 mg/L | 1 mg/L (≈ 2.53 µM) | > 64 mg/L | > 64 mg/L | 8 mg/L (≈ 20.2 µM) | 8 mg/L (≈ 20.2 µM) | 4 mg/L (≈ 10.1 µM) | 1 mg/L (≈ 2.53 µM) | 16 mg/L (≈ 40.5 µM) | 8 mg/L (≈ 20.2 µM) | 1 mg/L (≈ 2.53 µM) | 2 mg/L (≈ 5.06 µM) | 4 mg/L (≈ 10.1 µM) | 8 mg/L (≈ 20.2 µM) | 8 mg/L (≈ 20.2 µM) | 4 mg/L (≈ 10.1 µM) | MIC [21]: 4 mg/L (≈ 10.1 µM); MBC [22]: 4 mg/L (≈ 10.1 µM); MBC [23]: > 64 mg/L; MBC [24]: 32 mg/L (≈ 80.9 µM); MBC [25]: 16 mg/L (≈ 40.5 µM); MIC [26]: 4 mg/L (≈ 10.1 µM); Activity call [27]: Active; MIC [28]: 4 mg/L (≈ 10.1 µM); MIC [29]: 4 mg/L (≈ 10.1 µM); solubility kinetic at 2 h [30]: 147 µM (≈ 58.1 µg/mL); MIC [31]: 4 mg/L (≈ 10.1 µM); MIC [32]: 32 mg/L (≈ 80.9 µM); MIC [33]: 2 mg/L (≈ 5.06 µM)
